# Laboratory results as given in patent publication US20260021122A1, “CANNABINOIDS AND USES THEREOF IN TREATMENT OF A DISEASE” (TECHNION RESEARCH & DEVELOPMENT FOUNDATION LIMITED, priority 2022, published 2026).
# Tests used:
# CSF-1 = CSF-1 protein levels in B16F10 cells by confocal microscopy and western blot; format: cell-based, murine; details: 1.5 μg/ml CBG or 2 μg/ml 3704, 24 hours, both methods
# Description: B16F10 cells were seeded on 13 mm coverslips (Bar Naor Ltd., Cat #BN1001-13-1CN) and treated with either synthetic CBG or Cannabis extract 3704 for 24 hours. Then, cells were fixed at room temperature with 4% PFA (Electron Microscopy Sciences, Cat #15710) in PBS (Sartorius, Cat #02-023-1A) for 20 minutes, permeabilized by 0.3% Triton-100× (Sigma, Cat #T8787) in PBS for 10 minutes and Blocked with a solution containing 5% Normal Goat Serum (Abcam, Cat #ab7481), 0.25% Gelatin (Sigma-Aldrich, Cat #G7041) and 0.1% Triton-X100 in PBS for 1 hour. […] Analysis was conducted using the IMARIS software and results were calculated using the formula: mean AF-488 intensity divided by the number of nuclei.
# B16F10 cells, and sorted MO-MDSC and PMN-MDSC achieved as described, were lysed in RIPA buffer (Sigma, Cat #R0278) supplemented with Protease/Phosphatase Inhibitor Cocktail (Cell signaling, Cat #5872S) on ice for 20 minutes. Total protein concentrations were measured using the detergent-compatible protein assay (Bio-Rad, Cat #5000113 and 5000114) and equal amounts were loaded onto a 4%-20% gradient gel (Invitrogen, Cat #XPO4202) and semidry transferred into a nitrocellulose membrane (Bio-Rad, Cat #1704159). […]
# B16F10 tumors = test: Myeloid cell and CD3+ T-cell frequencies in excised B16F10 tumors (spectral flow cytometry); format: in vivo, mice; details: CBG 2.5 mg/kg or 3704 3.75 mg/kg i.p., tumors day 14
# Description: All procedures involving animals were conducted in accordance with the standards approved by the Technion Animal Care and Use Ethics Committee and the studies adhered to the Technion Code for Experimentation on Animals. To induce tumors, B16F10 cells grown to a confluency of ˜75% were resuspended to a concentration of 1×10^6 cells in 200 ul sterile PBS and transplanted subcutaneously into the right flank of 8-10-week-old female WT C57B6/L mice (Envigo, 16.8±0.78 g). After either 24 hours or 3 days, mice were randomly divided into groups and treated as indicated with either a vehicle of Cannabis extract solvent (18:1:1 ratio of DDW+0.9% NaCl, Sigma, Cat #S7653; Cremophor® EL, Cat #238470; Ethanol, Sigma, #Cat 111727), CAN (100 mg/kg), synthetic CBG (2.5 mg/kg) or 3704 (3.75 mg/kg) for 5 days, then 2 days off and again for 4 days. Tumor volume was measured from day 10 to 14 (endpoint) using a vernier caliper and calculated according to the formula […] and all tumors were weighed at the endpoint of the experiments with an analytical scale.
# To prepare single-cell suspensions from the tumors, on day 14 the tumors were excised from the mice and placed in Hanks' Balanced Salt solution (HBSS, Sigma; Cat #H6648) containing 20 mg/ml DNase I (Sigma, Cat #D5025), 1 mg/ml collagenase D from Clostridium histolyticum (Sigma-Aldrich, Cat #C5138) and 0.1 mg/ml hyaluronidase (Sigma-Aldrich, Cat #6254). Tumors were mechanically digested using a scalpel and the gentleMACS™M Dissociator (Miltenyi Biotec). The resulting solution was filtered through a 100 μm filter (Alex Red Ltd. Cat #SO SCS1002) and centrifuged for 10 minutes at 400×g. The supernatant was further used for cytokine and chemokine concentration measurements. For the characterization of myeloid cell frequencies in tumors, the cell pellet was further processed as follows: red blood cells were lysed using the red blood lysis buffer (Biological industries, Cat #01-888-1B), which was neutralized by washing with PBS+2% FBS and centrifuging 10 minutes at 400×g. After centrifugation, cells were resuspended in 40% percoll gradient solution (prepared from 100% percoll, Cytiva, #17089101) and then 80% percoll was added on top of the 40% solution without mixing. The cell suspension was centrifuged at room temperature for 30 minutes without acceleration and break at 500×g. Cells were isolated from the interphase between the 40% and 80% percoll solutions and washed with PBS +2% FBS. Finally, cells were stained with extracellular markers for CD3+ T-cells and myeloid cells, and subpopulation frequency was measured by spectral flow cytometry using Cytek® Aurora (Cytek Biosciences). […]
smiles,measurement,setting,value
"CCCCCc1cc(O)c(C/C=C(\C)CCC=C(C)C)c(O)c1 [CBG, cannabigerol]",CSF-1 protein levels in B16F10 cells,CSF-1,decreased CSF-1 protein levels
same,CD3 T-cells frequencies in tumors relative to vehicle control,B16F10 tumors,trend of increase in T-cells frequencies
same,frequencies of MO-MDSC and PMN-MDSC subpopulations in tumors,B16F10 tumors,did not affect
same,frequency of M2 macrophages in tumors relative to vehicle control,B16F10 tumors,trend of a decreased frequency in M2 macrophages
same,ratio between M1 and M2 macrophages (M2/M1) relative to vehicle control,B16F10 tumors; calculated for each mouse,trend of decreased ratio
